The test system of one series is Barnyardgrass (Echinochloa crus-galli). The experiment in a line: Postemergence herbicidal activity, greenhouse spray. Conditions: Echinochloa crus-galli, post-emergence, 336 h, Table 1; rate 250 ppm; visual score after 2 weeks; read-out: Post-emergent % control ECHCG. In kind it is in vivo. Put shortly: (§1)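 Plants grown 7-21 days in a greenhouse (~15 hr photoperiod, about 23-29° C day/22-28° C night) and treated at the first or second true leaf stage. Compounds in acetone:DMSO 97:3 were diluted into an aqueous acetone/isopropyl alcohol/crop oil/Triton X-155 carrier and sprayed to thorough coverage. Controls received carrier alone.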
`Cc1cccc(-c2cc(N)c(Cl)c(C(=O)O)n2)c1` [Compound 138, 4-Amino-3-chloro-6-(3-methylphenyl)pyridine-2-carboxylic acid]: the pest or weed control at 250 ppm worked out at 50%.
Same read-out and setting: next, `Nc1c(F)c(-c2ccc3c(c2)OCO3)nc(C(=O)O)c1Cl` [Compound 196, 4-Amino-3-chloro-5-fluoro-6-(3,4-methylenedioxyphenyl)pyridine-2-carboxylic acid]: 100%.

The same series, now with this note: Echinochloa crus-galli, post-emergence, 336 h, Table 2; rate 125 ppm; visual score after 2 weeks; read-out: Post-emergent % control ECHCG.
Consider `Nc1c(F)c(-c2ccc3c(c2)OCO3)nc(C(=O)O)c1Cl` [Compound 196, 4-Amino-3-chloro-5-fluoro-6-(3,4-methylenedioxyphenyl)pyridine-2-carboxylic acid], for which the pest or weed control at 125 ppm was 100%.

Another series relates to Cocklebur (Xanthium strumarium). The description is as above. Conditions: Xanthium strumarium, post-emergence, 336 h; Table 1; rate 250 ppm; visual score after 2 weeks; read-out: Post-emergent % control XANST. The series is classed as in vivo. In a few lines:
as §1
As to `Cc1cccc(-c2cc(N)c(Cl)c(C(=O)O)n2)c1` [Compound 138, 4-Amino-3-chloro-6-(3-methylphenyl)pyridine-2-carboxylic acid], the pest or weed control at 250 ppm was 100%.
As for `Nc1c(F)c(-c2ccc3c(c2)OCO3)nc(C(=O)O)c1Cl` [Compound 196, 4-Amino-3-chloro-5-fluoro-6-(3,4-methylenedioxyphenyl)pyridine-2-carboxylic acid], the pest or weed control at 250 ppm worked out at 100%.

Still in this series, the particulars now being: Xanthium strumarium, post-emergence, 336 h; Table 2; rate 125 ppm; visual score after 2 weeks; read-out: Post-emergent % control XANST.
Turning to `Nc1c(F)c(-c2ccc3c(c2)OCO3)nc(C(=O)O)c1Cl` [Compound 196, 4-Amino-3-chloro-5-fluoro-6-(3,4-methylenedioxyphenyl)pyridine-2-carboxylic acid], the pest or weed control at 125 ppm was 100%.

Another series has as its system Lambsquarter (Chenopodium album). Described as above. The series is classed as in vivo. Conditions: Chenopodium album, post-emergence, 336 h; Table 1; rate 250 ppm; visual score after 2 weeks; read-out: Post-emergent % control CHEAL. Put shortly: as §1
With `Cc1cccc(-c2cc(N)c(Cl)c(C(=O)O)n2)c1` [Compound 138, 4-Amino-3-chloro-6-(3-methylphenyl)pyridine-2-carboxylic acid], the pest or weed control at 250 ppm was determined as 100%.
Same read-out and setting: next, `Nc1c(F)c(-c2ccc3c(c2)OCO3)nc(C(=O)O)c1Cl` [Compound 196, 4-Amino-3-chloro-5-fluoro-6-(3,4-methylenedioxyphenyl)pyridine-2-carboxylic acid]: 100%.

The series is the same for the next values; noted with them: Chenopodium album, post-emergence, 336 h; Table 2; rate 125 ppm; visual score after 2 weeks; read-out: Post-emergent % control CHEAL.
As for `Nc1c(F)c(-c2ccc3c(c2)OCO3)nc(C(=O)O)c1Cl` [Compound 196, 4-Amino-3-chloro-5-fluoro-6-(3,4-methylenedioxyphenyl)pyridine-2-carboxylic acid], the pest or weed control at 125 ppm was determined as 100%.

The subject of another series is Yellow nutsedge (Cyperus esculentus). The series is described as above. The series is classed as in vivo. The conditions noted are these: Cyperus, post-emergence, 336 h, Table 1; rate 250 ppm; visual score after 2 weeks; read-out: Post-emergent % control CYPES. In a few lines: as §1
With `Cc1cccc(-c2cc(N)c(Cl)c(C(=O)O)n2)c1` [Compound 138, 4-Amino-3-chloro-6-(3-methylphenyl)pyridine-2-carboxylic acid], the pest or weed control at 250 ppm turned out to be 20%.
The same measure, in the same setting: next, `Nc1c(F)c(-c2ccc3c(c2)OCO3)nc(C(=O)O)c1Cl` [Compound 196, 4-Amino-3-chloro-5-fluoro-6-(3,4-methylenedioxyphenyl)pyridine-2-carboxylic acid]: 98%.

Still in this series, the particulars now being: Cyperus, post-emergence, 336 h, Table 2; rate 125 ppm; visual score after 2 weeks; read-out: Post-emergent % control CYPES.
`Nc1c(F)c(-c2ccc3c(c2)OCO3)nc(C(=O)O)c1Cl` [Compound 196, 4-Amino-3-chloro-5-fluoro-6-(3,4-methylenedioxyphenyl)pyridine-2-carboxylic acid]: the pest or weed control at 125 ppm worked out at 100%.

The test system of another series is Crabgrass(large) (Digitaria sanguinalis). Put plainly: Preemergence herbicidal activity, soil spray. The series is classed as in vivo. Conditions: Digitaria sanguinalis, pre-emergence, 504 h; Table 5; rate 560 ppm; visual score after 3 weeks; read-out: Pre-emergent % control DIGSA. From the text:
(§2) Seeds of the desired test plant species were planted in a soil matrix prepared by mixing a loam soil (43 percent silt, 19 percent clay, and 38 percent sand, with a pH of about 8.1 and an organic matter content of about 1.5 percent) and sand in a 70 to 30 ratio. The soil matrix was contained in plastic pots with a surface area of 113 square centimeters. When required to ensure good germination and healthy plants, a fungicide treatment and/or other chemical or physical treatment was applied. A weighed amount, determined by the highest rate to be tested, of each test compound was placed in a 20 mL glass vial and was dissolved in 4 mL of a 97:3 v/v (volume/volume) mixture of acetone and dimethyl sulfoxide to obtain concentrated stock solutions. […] The stock solutions obtained were diluted with a 99.9:0.1 mixture of water and Tween® 155 surfactant to obtain application solutions of known concentration. The solutions containing the highest concentration to be tested were prepared by diluting 2 mL aliquots of the stock solution with 15 mL of the mixture and lower concentrations were prepared by serial dilution of the stock solution. A 2.5 mL aliquot of each solution of known concentration was sprayed evenly onto the soil surface (113 sq. cm) of each seeded pot using a Cornwall 5.0 mL glass syringe fitted with a TeeJet TN-3 hollow cone nozzle to obtain thorough coverage of the soil in each pot. Control pots were sprayed in the same manner with the aqueous mixture. The treated pots and control pots were placed in a greenhouse maintained with an approximate 15 hr photoperiod and temperatures of about 23-29° C. during the day and 22-28° C. during the night. Nutrients and water were added on a regular basis and supplemental lighting was provided with overhead metal halide 1000-Watt lamps as necessary. The water was added by top-irrigation.
Consider `Cc1cccc(-c2cc(N)c(Cl)c(C(=O)O)n2)c1` [Compound 138, 4-Amino-3-chloro-6-(3-methylphenyl)pyridine-2-carboxylic acid], for which the pest or weed control at 560 ppm came to 100%.
Still for that read-out and setting: next, `Nc1c(F)c(-c2ccc3c(c2)OCO3)nc(C(=O)O)c1Cl` [Compound 196, 4-Amino-3-chloro-5-fluoro-6-(3,4-methylenedioxyphenyl)pyridine-2-carboxylic acid]: 100%.

Another series deals with Giant Foxtail (Setaria faberi). Put plainly: Preemergence herbicidal activity, soil spray. The series is classed as in vivo. Conditions: Setaria faberi, pre-emergence, 504 h, Table 5; rate 560 ppm; visual score after 3 weeks; read-out: Pre-emergent % control SETFA.
From the text: as §2
Consider `Cc1cccc(-c2cc(N)c(Cl)c(C(=O)O)n2)c1` [Compound 138, 4-Amino-3-chloro-6-(3-methylphenyl)pyridine-2-carboxylic acid], for which the pest or weed control at 560 ppm came to 98%.
Turning to `Nc1c(F)c(-c2ccc3c(c2)OCO3)nc(C(=O)O)c1Cl` [Compound 196, 4-Amino-3-chloro-5-fluoro-6-(3,4-methylenedioxyphenyl)pyridine-2-carboxylic acid], the pest or weed control at 560 ppm was 100%.

A further series deals with Lambsquarter (Chenopodium album). Put plainly: Preemergence herbicidal activity, soil spray. The series is classed as in vivo. Conditions: Chenopodium album, pre-emergence, 504 h; Table 5; rate 560 ppm; visual score after 3 weeks, 100 complete kill or no germination; read-out: Pre-emergent % control CHEAL.
From the text: as §2
In the case of `Cc1cccc(-c2cc(N)c(Cl)c(C(=O)O)n2)c1` [Compound 138, 4-Amino-3-chloro-6-(3-methylphenyl)pyridine-2-carboxylic acid], the pest or weed control at 560 ppm was 100%.
The same measure, in the same setting: next, `Nc1c(F)c(-c2ccc3c(c2)OCO3)nc(C(=O)O)c1Cl` [Compound 196, 4-Amino-3-chloro-5-fluoro-6-(3,4-methylenedioxyphenyl)pyridine-2-carboxylic acid]: 100%.

The subject of another series is Pigweed (redroot) (Amaranthus retroflexus). Put plainly: Preemergence herbicidal activity, soil spray. Conditions: Amaranthus retroflexus, pre-emergence, 504 h; Table 5; rate 560 ppm; visual score after 3 weeks; read-out: Pre-emergent % control AMARE. In kind it is in vivo.
From the text: as §2
`Cc1cccc(-c2cc(N)c(Cl)c(C(=O)O)n2)c1` [Compound 138, 4-Amino-3-chloro-6-(3-methylphenyl)pyridine-2-carboxylic acid]: the pest or weed control at 560 ppm was found to be 100%.
For `Nc1c(F)c(-c2ccc3c(c2)OCO3)nc(C(=O)O)c1Cl` [Compound 196, 4-Amino-3-chloro-5-fluoro-6-(3,4-methylenedioxyphenyl)pyridine-2-carboxylic acid], the pest or weed control at 560 ppm was 100%.

Test system in the next series: not given
Assay: not given
Conditions: not given
In turn, `Cc1cccc(-c2cc(N)c(Cl)c(C(=O)O)n2)c1` [Compound 138, 4-Amino-3-chloro-6-(3-methylphenyl)pyridine-2-carboxylic acid] gave a melting point of 173 to 175 °C.
Still for that read-out and setting: next, `Nc1c(F)c(-c2ccc3c(c2)OCO3)nc(C(=O)O)c1Cl` [Compound 196, 4-Amino-3-chloro-5-fluoro-6-(3,4-methylenedioxyphenyl)pyridine-2-carboxylic acid]: 169 °C.
